Laboratory results from ChEMBL document CHEMBL4017481, “Computer-aided discovery of two novel chalcone-like compounds active and selective against Leishmania infantum” (Bioorg Med Chem Lett, 2017).
pEC50: −log10 of the molar value.

Experiments:
[1] = (§1) Cytotoxicity against human THP1 cells measured after 72 hrs by resazurin assay; assay type: cell-based, THP-1; conditions: THP-1 cells
in vitro [2] = conditions: monkey, Vero cells
Description: Selectivity index, ratio of CC50 for African green monkey Vero cells to EC50 for Leishmania infantum MHOM/BR/1972/BH046 amastigotes

in vitro [3] = conditions: human
Description: Selectivity index, ratio of CC50 for human THP1 cells to EC50 for Leishmania infantum MHOM/BR/1972/BH046 amastigotes

Leishmania infantum = assay: microbe, parasite or virus in culture; assay type: functional; conditions: MHOM/BR/1972/BH046, 72 h
Description: Anti-leishmanial activity against Leishmania infantum MHOM/BR/1972/BH046 amastigotes infected in cells measured after 3 days by Draq5 staining based assay

[4] = (§2) Cytotoxicity against African green monkey Vero cells measured after 72 hrs by resazurin assay; assay type: cell-based; conditions: chlorocebus sabaeus, Vero cells
THP-1 = assay: as §1; assay type: cell-based; conditions: thp-1, 72 h
Vero = assay: as §2; assay type: cell-based; conditions: chlorocebus sabaeus, vero, 72 h

SMILES	CC50 at 72 h [1]	selectivity ratio (in vitro [2])	selectivity ratio (in vitro [3]; THP-1 cells)	pEC50 (Leishmania infantum)	CC50 at 72 h [4]	CC50 (THP-1)	CC50 (Vero)	selectivity ratio (in vitro [3])
O=C(/C=C/c1ccc([N+](=O)[O-])o1)c1ccc(Br)cc1	13.4 µM	3.4	0.46	4.54	> 100 µM			
O=C(/C=C/c1ccc([N+](=O)[O-])o1)c1ccc(N2CCCCC2)cc1		55	> 7.91	5.20		> 50 µM	349 µM	
O=C(/C=C/c1ccc([N+](=O)[O-])o1)c1ccc(N2CCOCC2)cc1	49 µM				> 100 µM			
COc1ccc(/C=C/C(=O)c2cccc(Br)c2)cc1	> 50 µM		> 50	< 4.30	> 100 µM			
COc1ccc(/C=C/C(=O)c2cccc(I)c2)cc1		2		< 4.30		> 50 µM	> 100 µM	
COc1ccc(/C=C/C(=O)c2ccc(-c3ccccc3)cc2)cc1				< 4.30		> 50 µM		
CN(C)c1ccc(/C=C/C(=O)c2ccc(-c3ccccc3)cc2)cc1				< 4.30		> 50 µM		
O=C(/C=C/c1ccc([N+](=O)[O-])o1)c1ccc(N2CCCC2)cc1	> 50 µM		> 4.26	4.93				
CC(C)(C)c1ccc(C(=O)/C=C/c2ccc([N+](=O)[O-])s2)cc1	8.4 to 8.49 µM	3 to 3.2	0.2 to 0.27	4.51			> 100 µM	
Cc1cccc(C(=O)/C=C/c2ccc([N+](=O)[O-])o2)c1	42.1 µM		> 50	< 4.30	55.1 µM			
O=C(/C=C/c1ccc([N+](=O)[O-])cc1)c1ccc(N2CCCCC2)cc1				< 4.30		> 50 µM		
O=C(/C=C/c1ccc([N+](=O)[O-])o1)c1ccc(-n2ccnc2)cc1	22.2 µM	8.1	1.79	4.91	> 100 µM			
O=C(/C=C/c1ccc([N+](=O)[O-])o1)c1ccc(N2CCNCC2)cc1		10 to 10.4	> 5.2	5.02		> 50 µM	> 100 µM	
Cc1ccc(C(=O)/C=C/c2ccc([N+](=O)[O-])s2)cc1	13.5 µM			< 4.30				
O=C(/C=C/c1ccc([N+](=O)[O-])o1)c1ccc(C2CCCCC2)cc1	3.1 to 31.1 µM	9.1 to 10	2.8 to 2.84				> 100 µM	
O=C(/C=C/c1ccc([N+](=O)[O-])o1)c1ccc(I)cc1	49.5 µM	3.6	1.8 to 1.82				> 100 µM	
O=C(/C=C/c1ccc([N+](=O)[O-])s1)c1ccc(C2CCCCC2)cc1	> 50 µM			< 4.30				

SMILES	CC50 at 72 h [1]	selectivity ratio (in vitro [2])	selectivity ratio (in vitro [3]; THP-1 cells)	pEC50 (Leishmania infantum)	CC50 at 72 h [4]	CC50 (THP-1)	CC50 (Vero)	selectivity ratio (in vitro [3])
O=C(/C=C/c1ccc([N+](=O)[O-])s1)c1ccc(N2CCOCC2)cc1	39.9 µM			< 4.30				
CC(C)(C)c1ccc(C(=O)/C=C/c2ccco2)cc1	> 50 µM			< 4.30				
CC(C)(C)c1ccc(C(=O)/C=C/c2ccc([N+](=O)[O-])o2)cc1	> 50 µM			< 4.30	> 100 µM			
Cc1ccccc1C(=O)/C=C/c1ccc([N+](=O)[O-])o1	27.9 µM	1	0.74	4.42	41.3 µM			
CSc1ccc(C(=O)/C=C/c2ccc([N+](=O)[O-])s2)cc1	8.56 µM			< 4.30	> 100 µM			
O=C(/C=C/c1ccco1)c1ccc(N2CCCCC2)cc1	> 50 µM		> 50	< 4.30				
O=C(/C=C/c1ccc([N+](=O)[O-])o1)c1ccc(-c2ccccc2)cc1	50.4 µM	4.7	2.35	4.67	> 100 µM			
O=C(/C=C/c1ccc([N+](=O)[O-])s1)c1ccc(-n2ccnc2)cc1	23.4 µM	1.3	0.75	4.50	42.7 µM			
CSc1ccc(C(=O)/C=C/c2ccco2)cc1	> 50 µM		> 1.09	4.34				
CCCCc1ccc(C(=O)/C=C/c2ccc([N+](=O)[O-])s2)cc1	17.1 µM			< 4.30	81.3 µM			
O=C(/C=C/c1cccc([N+](=O)[O-])c1)c1ccc(N2CCCCC2)cc1			> 1.62	4.51		> 50 µM		
CCCCc1ccc(C(=O)/C=C/c2ccc([N+](=O)[O-])o2)cc1	48.7 µM			< 4.30	75.7 µM			
O=C(/C=C/c1ccc(Cl)s1)c1ccc(-n2ccnc2)cc1	> 50 µM		> 2.33	4.67				
O=C(/C=C/c1ccc([N+](=O)[O-])o1)c1cccc(Br)c1		2.8 to 2.9	0.6 to 0.63	4.62		14.9 µM	68.8 µM	
CSc1ccc(C(=O)/C=C/c2ccc([N+](=O)[O-])o2)cc1	13.1 µM	4.3	1.4 to 1.41	5.03			40.7 µM	
C[C@@H]1[C@H](O)[C@@H](C)/C=C/C=C/C=C/C=C/C=C/C=C/C=C/[C@H](O[C@@H]2O[C@H](C)[C@@H](O)[C@H](N)[C@@H]2O)C[C@@H]2O[C@](O)(C[C@@H](O)C[C@@H](O)[C@H](O)CC[C@@H](O)C[C@@H](O)CC(=O)O[C@H]1C)C[C@H](O)[C@H]2C(=O)O [AMPHOTERICIN B]	> 50 µM			5.72				> 26
